For assay [1], the target named is MCL-1 (Homo sapiens (Human), UniProt Q07820). As to the kind of experiment: Cell free Mcl-1:Bim affinity assay (fluorescence polarization competition). It counts as binding. The following applies: 15 nM MCL-1, 5 nM FITC-Bim, 1 hour at room temperature, read-out: BIM_Ki. An outline of the steps: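 Fluorescence polarization competition: 10-point 3-fold compound dilutions displaced 5 nM FITC-Bim from 15 nM MCL-1 over 1 h at room temperature. Ki was derived from the fitted IC50 using the Nikolovska-Coleska equation, with percent inhibition normalized to DMSO and positive controls.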

For assay [2], the system named is H929 cells. As to the kind of experiment: Cell viability assay (H929 10 FBS). In kind it is cell-based. The following applies: Homo sapiens, NCI-H929, 24 hours, read-out: H929_10FBS IC50. The method, boiled down: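 ATP-based luminescence (CellTiter-Glo or ATPlite 1 Step, 30-60 min at RT) gauged viability of H929 myeloma cells after 24 h compound treatment at 37 °C. Cells plated at 4000 per well in 10% FBS RPMI 1640 supplemented with pyruvate, HEPES and glucose.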

This passage reports Ki and IC50 results from patent US11130769B2 (Prelude Therapeutics Incorporated, priority 2018, dated 2021).

One may read the IC50 as the concentration that inhibits the measured activity by half.

SMILES strings stand for the structures. Like-named read-outs stand apart in the source and are kept apart here.

Chain of MCL-1 (Q07820 whole entry): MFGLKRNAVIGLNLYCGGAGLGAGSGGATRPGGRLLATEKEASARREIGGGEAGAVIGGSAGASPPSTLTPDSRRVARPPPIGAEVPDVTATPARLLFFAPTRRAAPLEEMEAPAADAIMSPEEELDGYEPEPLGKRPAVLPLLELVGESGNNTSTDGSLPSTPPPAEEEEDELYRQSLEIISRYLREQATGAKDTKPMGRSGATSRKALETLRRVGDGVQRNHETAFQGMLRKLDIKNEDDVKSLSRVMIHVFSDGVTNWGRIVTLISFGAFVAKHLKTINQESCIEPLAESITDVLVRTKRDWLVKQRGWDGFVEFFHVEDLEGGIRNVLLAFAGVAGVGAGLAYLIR

As to `O=C1NS(=O)(=O)c2ccc3c(c2)N(C[C@@H]2CC[C@H]2[C@H](O)/C=C/COC12CC2)C[C@@]1(CCCc2cc(Cl)ccc21)CO3` [Example 38, (3R,6R,7R,8E,22S)-6′-Chloro-7-hydroxy-12,12-ethylene-15,15-dioxo-spiro[11,20-dioxa-15-thia-1,14-diazatetracyclo[14.7.2.03,6.019,24]pentacosa[8,16(25),17,19(24)]tetraene-22,1′-tetralin]-13-one], in assay [1] (class symbols), the Ki is less than 1 nM. Moreover, in assay [2], the IC50 was less than 500 nM.
For `CC(=O)N(C)[C@H]1/C=C/COC(C)(C)C(=O)NS(=O)(=O)c2ccc3c(c2)N(C[C@@H]2CC[C@H]21)C[C@@]1(CCCc2cc(Cl)ccc21)CO3` [Example 255, N-Methyl-N-[(3R,6R,7S,8E,22S)-6′-chloro-12,12-dimethyl-13,15,15-trioxo-spiro[11,20-dioxa-15-thia-1,14-diazatetracyclo[14.7.2.03,6.019,24]pentacosa-8,16(25),17,19(24)-tetraene-22,1′-tetralin]-7-yl]acetamide] the same measures were 1 to 100 nM and greater than 1000 nM.
As to `CC(=O)NS(=O)(=O)c1ccc2c(c1)N(CC1CCC1)CC1(CCCc3cc(Cl)ccc31)CO2` (stereo not shown) [Example 1, N-[6′-Chloro-5-(cyclobutylmethyl)spiro[2,4-dihydro-1,5-benzoxazepine-3,1′-tetralin]-7-yl]sulfonylacetamide], the Ki in assay [1] (numeric values) came to 45.6 nM. Further, the half-maximal inhibitory concentration (IC50) in assay [2] was greater than 1000 nM.
For `O=C(NS(=O)(=O)c1ccc2c(c1)N(CC1CCC1)C[C@@]1(CCCc3cc(Cl)ccc31)CO2)C1CCCC1` [Example 13, N-[(3S)-6′-Chloro-5-(cyclobutylmethyl)spiro[2,4-dihydro-1,5-benzoxazepine-3,1′-tetralin]-7-yl]sulfonylcyclopentanecarboxamide] the same measures were 22 nM and greater than 1000 nM.
For the compound `CCO[C@@H]1CCN(C(=O)O[C@H]2/C=C/COC3(CCC3)C(=O)NS(=O)(=O)c3ccc4c(c3)N(C[C@@H]3CC[C@H]32)C[C@@]2(CCCc3cc(Cl)ccc32)CO4)C1` [Example 228, [(3R,6R,7S,8E,22S)-6′-Chloro-12,12-(1,3-propylene)-13,15,15-trioxo-spiro[11,20-dioxa-15-thia-1,14-diazatetracyclo[14.7.2.03,6.019,24]pentacosa-8,16,18,24-tetraene-22,1′-tetralin]-7-yl] (3R)-3-ethoxypyrrolidine-1-carboxylate], in assay [1] (class symbols), the Ki was less than 1 nM. Further, the concentration for half-maximal inhibition (IC50) in assay [2] is less than 500 nM.
For `CC1(C)OC/C=C/[C@H](OC(=O)N2CCN(CCO)CC2)[C@@H]2CC[C@H]2CN2C[C@@]3(CCCc4cc(Cl)ccc43)COc3ccc(cc32)S(=O)(=O)NC1=O` [Example 148, [(3R,6R,7S,8E,22S)-6′-Chloro-12,12-dimethyl-13,15,15-trioxo-spiro[11,20-dioxa-15-thia-1,14-diazatetracyclo[14.7.2.03,6.019,24]pentacosa-8,16,18,24-tetraene-22,1′-tetralin]-7-yl] 4-(2-hydroxyethyl)piperazine-1-carboxylate] the same measures were less than 1 nM and less than 500 nM.
For `CN(C)C(=O)O[C@H]1/C=C/COC2(CCC2)C(=O)NS(=O)(=O)c2ccc3c(c2)N(C[C@@H]2CC[C@H]21)C[C@@]1(CCCc2cc(Cl)ccc21)CO3` [Example 231, [(3R,6R,7S,8E,22S)-7′-Chloro-12,12-(1,3-propylene)-13,15,15-trioxo-spiro[11,20-dioxa-15λ6-thia-1,14-diazatetracyclo[14.7.2.03,6.019,24]pentacosa-8,16,18,24-tetraene-22,4′-chromane]-7-yl] N,N-dimethyl-1-carboxylate] the same measures were less than 1 nM and less than 500 nM.
For `CO[C@@H]1/C=C/COC2(CCC2)C(=O)NS(=O)(=O)c2ccc3c(c2)N(C[C@@H]2CC[C@H]21)C[C@@]1(CCCc2cc(Cl)ccc21)CO3` [Example 31, (3R,6R,7R,8E,22S)-6′-Chloro-7-methoxy-12,12-(1,3-propylene)-15,15-dioxo-spiro[11,20-dioxa-15-thia-1,14-diazatetracyclo[14.7.2.03,6.019,24]pentacosa[8,16(25),17,19(24)]tetraene-22,1′-tetralin]-13-one] the same measures were 1 to 100 nM and greater than 1000 nM.
As for `CN1CC[C@H](NC(=O)O[C@H]2/C=C/COC(C)(C)C(=O)NS(=O)(=O)c3ccc4c(c3)N(C[C@@H]3CC[C@H]32)C[C@@]2(CCCc3cc(Cl)ccc32)CO4)C1` [Example 151, [(3R,6R,7S,8E,22S)-6′-Chloro-12,12-dimethyl-13,15,15-triox-spiro[11,20-dioxa-15-thia-1,14-diazatetracyclo[14.7.2.03,6.019,24]pentacosa-8,16,18,24-tetraene-22,1′-tetralin]-7-yl] N-[(3S)-1-methylpyrrolidin-3-yl]carbamate], in assay [1] (class symbols), the Ki was less than 1 nM. Moreover, the half-maximal inhibitory concentration (IC50) in assay [2] is less than 500 nM.
For `CNC(=O)O[C@H]1/C=C/COC2(CC2)C(=O)NS(=O)(=O)c2ccc3c(c2)N(C[C@@H]2CC[C@H]21)C[C@@]1(CCCc2cc(Cl)ccc21)CO3` [Example 227, [(3R,6R,7S,8E,22S)-6′-Chloro-12,12-ethylene-13,15,15-trioxo-spiro[11,20-dioxa-15-thia-1,14-diazatetracyclo[14.7.2.03,6.019,24]pentacosa-8,16,18,24-tetraene-22,1′-tetralin]-7-yl] N-methylcarbamate], the Ki in assay [1] (class symbols) is less than 1 nM. The concentration for half-maximal inhibition (IC50) in assay [2] is less than 500 nM.
For `[2H]C([2H])([2H])N(C(=O)O[C@H]1/C=C/COC(C)(C)C(=O)NS(=O)(=O)c2ccc3c(c2)N(C[C@@H]2CC[C@H]21)C[C@@]1(CCCc2cc(Cl)ccc21)CO3)C([2H])([2H])[2H]` [Example 47, [(3R,6R,7S,8E,22S)-6′-Chloro-12,12-dimethyl-13,15,15-trioxo-spiro[11,20-dioxa-thia-1,14-diazatetracyclo[14.7.2.03,6.019,24]pentacosa-8,16,18,24-tetraene-22,1′-tetralin]-7-yl] N,N-bis(trideuteriomethyl)carbamate] the same measures were less than 1 nM and less than 500 nM.
Taken in the same sequence, the figures for `O=C(N[C@H]1CCOC1)O[C@H]1/C=C/COC2(CCC2)C(=O)NS(=O)(=O)c2ccc3c(c2)N(C[C@@H]2CC[C@H]21)C[C@@]1(CCCc2cc(Cl)ccc21)CO3` [Example 237, [(3R,6R,7S,8E,22S)-6′-Chloro-12,12-(1,3-propylene)-13,15,15-trioxo-spiro[11,20-dioxa-15-thia-1,14-diazatetracyclo[14.7.2.03,6.019,24]pentacosa-8,16(25),17,19(24)-tetraene-22,1′-tetralin]-7-yl] N-[(3S)-tetrahydrofuran-3-yl]carbamate] were less than 1 nM and less than 500 nM.
Taken in the same sequence, the figures for `CN(C)C(=O)O[C@H]1/C=C/COC(C)(C)C(=O)NS(=O)(=O)c2ccc3c(c2)N(C[C@@H]2CC[C@H]21)C[C@@]1(CCCc2cc(Cl)ccc21)CO3` [Example 34, [(3R,6R,7S,8E,22S)-6′-Chloro-12,12-dimethyl-3,5,5-trioxo-spiro[11,20-dioxa-15-thia-1,14-diazatetracyclo[14.7.2.03,6.019,24]pentacosa-8,16,18,24-tetraene-22,1′-tetralin]-7-yl] N,N-dimethylcarbamate] were less than 1 nM and less than 500 nM.
`CN(C)C(=O)O[C@H]1/C=C/CNC(C)(C)C(=O)NS(=O)(=O)c2ccc3c(c2)N(C[C@@H]2CC[C@H]21)C[C@@]1(CCCc2cc(Cl)ccc21)CO3` [Example 209, [(3R,6R,7S,8E,22S)-6′-Chloro-12,12-dimethyl-13,15,15-trioxo-spiro[20-oxa-15-thia-1,11,14-triazatetracyclo[14.7.2.03,6.019,24]pentacosa-8,16,18,24-tetraene-22,1′-tetralin]-7-yl] N,N-dimethylcarbamate]: in assay [1] (class symbols), the Ki is less than 1 nM. For the same compound, in assay [2], the IC50 is less than 500 nM.
For `CON(C)C(=O)O[C@H]1/C=C/COC(C)(C)C(=O)NS(=O)(=O)c2ccc3c(c2)N(C[C@@H]2CC[C@H]21)C[C@@]1(CCOc2cc(Cl)ccc21)CO3` [Example 306, [(3R,6R,7S,8E,22S)-7′-Chloro-12,12-dimethyl-13,15,15-trioxo-spiro[11,20-dioxa-15-thia-1,14-diazatetracyclo[14.7.2.03,6.019,24]pentacosa-8,16,18,24-tetraene-22,4′-chromane]-7-yl] N-methoxy-N-methyl-carbamate] the same measures were less than 1 nM and less than 500 nM.
With `CN(C)C[C@@H]1CCCN1C(=O)O[C@H]1/C=C/COC(C)(C)C(=O)NS(=O)(=O)c2ccc3c(c2)N(C[C@@H]2CC[C@H]21)C[C@@]1(CCCc2cc(Cl)ccc21)CO3` [Example 168, [(3R,6R,7S,8E,22S)-6′-Chloro-12,12-dimethyl-13,15,15-trioxo-spiro[11,20-dioxa-15-thia-1,14-diazatetracyclo[14.7.2.03,6.019,24]pentacosa-8,16,18,24-tetraene-22,1′-tetralin]-7-yl] (2S)-2-[(dimethylamino)methyl]pyrrolidine-1-carboxylate], the Ki in assay [1] (class symbols) is less than 1 nM. In addition, the concentration for half-maximal inhibition (IC50) in assay [2] was less than 500 nM.
For `CO[C@@H]1/C=C/CNC2(CC2)C(=O)NS(=O)(=O)c2ccc3c(c2)N(C[C@@H]2CC[C@H]21)C[C@@]1(CCCc2cc(Cl)ccc21)CO3` [Example 119, (3R,6R,7R,8E,22S)-6′-Chloro-7-methoxy-12,12-ethylene-15,15-dioxo-spiro[20-oxa-15-thia-1,11,14-triazatetracyclo[14.7.2.03,6.019,24]pentacosa[8,16(25),17,19(24)]tetraene-22,1′-tetralin]-13-one] the same measures were 1 to 100 nM and less than 1000 nM.
